Assay results published in publication PMC6493773, “Structure and mechanism of TagA, a novel membrane-associated glycosyltransferase that produces wall teichoic acids in pathogenic bacteria” (PLoS Pathogens, 2019).

Tests used:
[1] = biological target: T1, full-length TagA from S. aureus (Staphylococcus aureus, UniProt Q7A714); test: anion-exchange HPLC of UDP formation, […] nm; format: biochemical; settings: 200 nM enzyme; UDP-ManNAc made in situ from 100 μM UDP-GlcNAc by MnaA; 100 μM lipid-α analog; pH 7.5, 250 mM NaCl, 30°C
T1 construct: gene tarA; full-length; strain and plasmid only in supplement
T1 sequence (Q7A714 whole entry): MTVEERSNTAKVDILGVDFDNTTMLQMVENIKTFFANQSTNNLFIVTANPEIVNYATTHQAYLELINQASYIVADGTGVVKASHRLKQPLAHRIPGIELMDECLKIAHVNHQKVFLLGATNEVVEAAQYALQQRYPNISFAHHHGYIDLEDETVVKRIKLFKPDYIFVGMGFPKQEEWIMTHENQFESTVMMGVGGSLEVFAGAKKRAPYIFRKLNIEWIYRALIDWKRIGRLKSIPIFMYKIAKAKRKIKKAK

[2] = biological target: T2, full-length TagA from T. italicus (UniProt D3T4E0); test: anion-exchange HPLC of UDP formation, […] nm; format: biochemical, Thermoanaerobacter thermocopriae; settings: 200 nM enzyme; UDP-ManNAc made in situ from 100 μM UDP-GlcNAc by MnaA; 100 μM lipid-α analog; pH 7.5, 250 mM NaCl, 30°C
T2 construct: gene Thit_1850; full-length (195 + 49 C-terminal residues); purification details only in supplement
T2 sequence (D3T4E0 entry or part of it): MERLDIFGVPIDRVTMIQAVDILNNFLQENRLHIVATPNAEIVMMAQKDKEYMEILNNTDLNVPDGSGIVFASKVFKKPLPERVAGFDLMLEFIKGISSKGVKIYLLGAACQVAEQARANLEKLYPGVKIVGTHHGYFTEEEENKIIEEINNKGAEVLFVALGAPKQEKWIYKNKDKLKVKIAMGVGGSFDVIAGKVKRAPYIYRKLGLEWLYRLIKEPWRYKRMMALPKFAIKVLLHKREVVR

With `CC(=O)N[C@@H]1[C@@H](OP(=O)(O)OP(=O)(O)OC[C@H]2O[C@@H](n3ccc(=O)[nH]c3=O)[C@H](O)[C@@H]2O)O[C@H](CO)[C@@H](O)[C@@H]1O` [UDP-ManNAc] the “anion-exchange HPLC of UDP formation, 271 nm” value (from here on “anion-exchange HPLC”) [1] was “full-length TagA enzymes from T. italicus and S. aureus exhibit similar transferase activities in vitro” and the “anion-exchange HPLC” value [2] was “we reconstituted its GT activity in vitro using UDP-ManNAc and a lipid-α analog”.

`CCCCCCCCCCCCCOP(=O)(O)OP(=O)(O)O[C@H]1O[C@H](CO)[C@@H](O)[C@H](O)[C@H]1NC(C)=O` [lipid-α analog] was tested, and the “anion-exchange HPLC” value [2] was “using UDP-ManNAc and a lipid-α analog that replaces its undecaprenyl chain with tridecane”.
